Experimental data from ChEMBL document CHEMBL3351870, “Structure elucidation of phase I metabolites of the microtubule perturbagens: ceratamines A and B” (J Nat Prod, 2014).

How the values were obtained:
Liver microsome [1] = test: Drug metabolism in rat liver microsomes incubated with 10 uM ceratamine B for 60 mins assessed as metabolite formation in presence of 1 mM NADPH at pH 7.4 and 37 degC by reverse phase HPLC-UV chromatography; assay type: ADME; settings: pH 7.4, 1 h
Liver microsome [2] = test: Drug metabolism in rat liver microsomes incubated with 10 uM ceratamine A for 60 mins assessed as metabolite level in presence of 1 mM NADPH at pH 7.4 and 37 degC by Quadrupole-time-of-flight mass spectrometry; assay type: ADME; settings: pH 7.4, 1 h
[3] = Retention time by reverse phase HPLC-UV chromatography; assay type: physicochemical
Liver microsome [4] = test: Drug metabolism in rat liver microsomes incubated with 10 uM ceratamine B for 60 mins assessed as metabolite level in presence of 1 mM NADPH at pH 7.4 and 37 degC by Quadrupole-time-of-flight mass spectrometry; assay type: ADME; settings: pH 7.4, 1 h
Liver microsome [5] = test: Drug metabolism in rat liver microsomes incubated with 10 uM ceratamine A for 60 mins assessed as metabolite formation in presence of 1 mM NADPH at pH 7.4 and 37 degC by reverse phase HPLC-UV chromatography; assay type: ADME; settings: pH 7.4, 1 h

Drug metabolism (Liver microsome [1]) | Drug metabolism (Liver microsome [2]) | Retention_time [3] [min] | Drug metabolism (Liver microsome [4]) | Drug metabolism (Liver microsome [5]) | Compound
metabolite_detected | – | – | – | – | CNc1nc2cc[nH]c(=O)c(Cc3cc(Br)c(OC)c(Br)c3)c-2n1
– | metabolite_detected | 20.1 | metabolite_detected | – | CNc1nc2cc[nH]c(=O)c(Cc3cc(Br)c(O)c(Br)c3)c-2n1
– | metabolite_detected | 29.6 | metabolite_detected | – | COc1c(Br)cc(Cc2c3nc(N)nc-3cc[nH]c2=O)cc1Br
– | – | – | – | metabolite_detected | CNc1nc2ccn(C)c(=O)c(Cc3cc(Br)c(OC)c(Br)c3)c-2n1 [CERATAMINE A]
